This is an account of results in US20110077248A1, “IMIDAZOPYRIDINE AND RELATED ANALOGS AS SIRTUIN MODULATORS” (Sirtris Pharmaceuticals, Inc., priority 2008, published 2011).

For this experiment, the target named is T1, SIRT1 (Homo sapiens, UniProt Q96EB6).
T1 construct: His-tag (N); made in house; host or cells: E. coli BL21(DE3), T7-promoter vector
T1 sequence (Q96EB6 1-747): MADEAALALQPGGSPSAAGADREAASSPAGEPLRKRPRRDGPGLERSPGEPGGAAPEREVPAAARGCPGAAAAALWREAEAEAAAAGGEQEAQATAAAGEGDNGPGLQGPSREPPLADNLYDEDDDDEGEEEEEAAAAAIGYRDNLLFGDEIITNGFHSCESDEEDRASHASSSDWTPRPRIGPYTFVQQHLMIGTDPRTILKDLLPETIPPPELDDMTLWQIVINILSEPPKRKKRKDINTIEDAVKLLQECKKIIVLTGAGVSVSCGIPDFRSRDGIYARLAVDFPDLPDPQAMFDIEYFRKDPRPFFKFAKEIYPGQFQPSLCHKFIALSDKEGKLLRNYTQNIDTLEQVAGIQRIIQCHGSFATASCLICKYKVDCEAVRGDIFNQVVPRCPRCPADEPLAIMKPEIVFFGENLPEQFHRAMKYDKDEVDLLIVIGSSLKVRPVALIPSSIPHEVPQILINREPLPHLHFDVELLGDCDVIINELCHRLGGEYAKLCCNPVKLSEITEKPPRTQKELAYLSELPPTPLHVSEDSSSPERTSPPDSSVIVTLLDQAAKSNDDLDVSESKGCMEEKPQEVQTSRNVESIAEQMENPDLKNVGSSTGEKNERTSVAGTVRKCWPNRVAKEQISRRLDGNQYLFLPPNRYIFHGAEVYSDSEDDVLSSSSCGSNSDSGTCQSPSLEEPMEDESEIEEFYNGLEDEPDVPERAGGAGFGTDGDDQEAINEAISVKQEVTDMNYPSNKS
Description: Mass spectrometry based assay for modulators of SIRT1 activity (deacetylation of p53-based acetylated peptide). It is filed as biochemical. The note with it: for EC1.5: concentration of test compound that results in 150% activation of SIRT1, 0.5 μM peptide substrate, 120 μM βNAD+, 10 nM SIRT1, 25 min, 25° C.; for Emax: percent maximum fold activation of SIRT1. The source says: A mass spectrometry based assay was used to identify modulators of SIRT1 activity. The mass spectrometry based assay utilizes a peptide having 20 amino acid residues as follows: Ac-EE-K(biotin)-GQSTSSHSK(Ac)NleSTEG-K(5TMRi)-EE-NH2 (SEQ ID NO: 1) wherein K(Ac) is an acetylated lysine residue and Nle is a norleucine. The peptide is labeled with the fluorophore 5TMR (excitation 540 nm/emission 580 nm) at the C-terminus. The sequence of the peptide substrate is based on p53 with several modifications. In addition, the methionine residue naturally present in the sequence was replaced with the norleucine because the methionine may be susceptible to oxidation during synthesis and purification.
The mass spectrometry assay is conducted as follows: 0.5 μM peptide substrate and 120 μM βNAD+ is incubated with 10 nM SIRT1 for 25 minutes at 25° C. in a reaction buffer (50 mM Tris-acetate pH 8, 137 mM NaCl, 2.7 mM KCl, 1 mM MgCl2, 5 mM DTT, 0.05% BSA). Test compounds may be added to the reaction as described above. The SirT1 gene is cloned into a T7-promoter containing vector and transformed into BL21(DE3). After the 25 minute incubation with SIRT1, 10 μL of 10% formic acid is added to stop the reaction. Reactions are sealed and frozen for later mass spec analysis. Determination of the mass of the substrate peptide allows for precise determination of the degree of acetylation (i.e. starting material) as compared to deacetylated peptide (product).
A control for inhibition of sirtuin activity is conducted by adding 1 μL of 500 mM nicotinamide as a negative control at the start of the reaction (e.g., permits determination of maximum sirtuin inhibition). A control for activation of sirtuin activity is conducted using 10 nM of sirtuin protein, with 1 μL of DMSO in place of compound, to determinine the amount of deacetylation of the substrate at a given timepoint within the linear range of the assay. This timepoint is the same as that used for test compounds and, within the linear range, the endpoint represents a change in velocity.
For the above assay, SIRT1 protein was expressed and purified as follows. The SirT1 gene was cloned into a T7-promoter containing vector and transformed into BL21(DE3). The protein was expressed by induction with 1 mM IPTG as an N-terminal His-tag fusion protein at 18° C. overnight and harvested at 30,000×g. Cells were lysed with lysozyme in lysis buffer (50 mM Tris-HCl, 2 mM Tris[2-carboxyethyl]phosphine (TCEP), 10 μM ZnCl2, 200 mM NaCl) and further treated with sonication for 10 min for complete lysis. The protein was purified over a Ni-NTA column (Amersham) and fractions containing pure protein were pooled, concentrated and run over a sizing column (Sephadex S200 26/60 global). The peak containing soluble protein was collected and run on an Ion-exchange column (MonoQ). Gradient elution (200 mM-500 mM NaCl) yielded pure protein. This protein was concentrated and dialyzed against dialysis buffer (20 mM Tris-HCl, 2 mM TCEP) overnight. The protein was aliquoted and frozen at −80° C. until further use.
Sirtuin modulating compounds that activated SIRT1 were identified using the assay described above and are shown below in Table 1. The EC1.5 values represent the concentration of test compounds that result in 150% activation of SIRT1. The EC1.5 values for the activating compounds are represented by A (EC1.5<1.0 uM), B (EC1.5 1-25 uM), C (EC1.5>25 uM). The percent maximum fold activation is represented by A (Fold activation >200%) or B (Fold Activation <200%). “NT” indicates the compound was not tested in a particular assay.

Broadly, the Emax is the size of the effect at its maximum, as opposed to the concentration needed. With `O=C(Nc1nc(CN2CCOCC2)cs1)c1cccn2cc(-c3cc(F)ccc3F)nc12` [Compound 200], the EC1.5 entry was “A (EC1.5<1.0 uM)” and the Emax is above 200%.

Take `O=C(Nc1nc(CN2CCOCC2)cs1)c1nccn2cc(-c3ccccc3C(F)(F)F)nc12` [Compound 258]: the EC1.5 result is “A (EC1.5<1.0 uM)” and the Emax was above 200%.

On to `O=C(Nc1cccn2cc(-c3cccc(-c4ccccc4)c3)nc12)c1ncccn1` [Compound 125], for which the EC1.5 result is listed as “B (EC1.5 1-25 uM)” and the Emax is below 200%.

For `Cc1ccc(-c2nc3c(C(=O)Nc4ccccn4)cccn3n2)cn1` [Compound 211], the EC1.5 entry is “C (EC1.5>25 uM)” and the maximal effect (Emax) was below 200%.

Consider `O=C(Nc1ccncn1)c1nccn2cc(-c3ccc(F)cc3C(F)(F)F)nc12` [Compound 246], for which the EC1.5 entry is listed as “A (EC1.5<1.0 uM)” and the maximum response (Emax) was above 200%.

For `O=C(Nc1nc(CN2CCOCC2)cs1)c1cccn2cc(-c3ccc(F)cc3C(F)(F)F)nc12` [Compound 237], the EC1.5 entry is “A (EC1.5<1.0 uM)” and the Emax was above 200%.

For `O=C(Nc1nc(CN2CCOCC2)cs1)c1nccn2cc(-c3ccc(F)c(F)c3)nc12` [Compound 194], the EC1.5 result is on record as “B (EC1.5 1-25 uM)” and the maximum response (Emax) is above 200%.

Turning to `O=C(Nc1ccccn1)c1cccn2cc(-c3ccc(CN4CCOCC4)cc3)nc12` [Compound 251], the EC1.5 entry is reported as “B (EC1.5 1-25 uM)” and the Emax is above 200%.

In the case of `O=C(Nc1nccs1)c1cccn2nc(-c3ccc(N4CCOCC4)cc3C(F)(F)F)nc12` [Compound 219, 2-(4-morpholino-2-(trifluoromethyl)phenyl)-N-(thiazol-2-yl)-[1,2,4]triazolo[1,5-a]pyridine-8-carboxamide], the EC1.5 result is given as “A (EC1.5<1.0 uM)” and the Emax was above 200%.

With `O=C(Nc1nccs1)c1cccn2nc(-c3cccc(N4CCOCC4)c3)nc12` [Compound 181], the EC1.5 entry is recorded as “B (EC1.5 1-25 uM)” and the maximal effect (Emax) is below 200%.

In the case of `O=C(Nc1nccs1)c1cccn2cc(-c3ccc(CN4CCOCC4)cc3)nc12` [Compound 262, 2-(4-(morpholinomethyl)phenyl)-N-(thiazol-2-yl)imidazo[1,2-a]pyridine-8-carboxamide], the EC1.5 entry is given as “B (EC1.5 1-25 uM)” and the Emax is above 200%.

For `O=C(Nc1nccs1)c1nccn2cc(-c3ccccc3C(F)(F)F)nc12` [Compound 171], the EC1.5 entry was “A (EC1.5<1.0 uM)” and the Emax is above 200%.

As for `O=C(Nc1cccc(CN2CCOCC2)n1)c1cccn2cc(-c3cccc(C(F)F)c3)nc12` [Compound 209], the EC1.5 result is recorded as “A (EC1.5<1.0 uM)” and the Emax is above 200%.

For the compound `O=C(Nc1ccccn1)c1cccn2cc(-c3ccc(N4CCOCC4)cc3)nc12` [Compound 184], the EC1.5 entry is on record as “C (EC1.5>25 uM)” and the Emax is below 200%.

Regarding `Cc1ccc(-c2cn3ccnc(C(=O)Nc4ccccn4)c3n2)cn1` [Compound 163], the EC1.5 result is recorded as “B (EC1.5 1-25 uM)” and the Emax was below 200%.

As for `O=C(Nc1nccs1)c1cccn2cc(-c3cccc(C(F)(F)F)c3)nc12` [Compound 112], the EC1.5 result was “C (EC1.5>25 uM)” and the Emax was below 200%.

Consider `O=C(Nc1nccs1)c1cccn2cc(-c3ccc(N4CCCC4)cc3)nc12` [Compound 166], for which the EC1.5 result is on record as “C (EC1.5>25 uM)” and the Emax is below 200%.

Take `O=C(Nc1nc(CN2CCOCC2)cs1)c1cccn2cc(-c3cccc(C(F)(F)F)c3)nc12` [Compound 132, N-(4-(morpholinomethyl)thiazol-2-yl)-2-(3-(trifluoromethyl)phenyl)imidazo[1,2-a]pyridine-8-carboxamide]: the EC1.5 result was “A (EC1.5<1.0 uM)” and the Emax is above 200%.

Regarding `O=C(Nc1nc(CN2CCOCC2)cs1)c1cccn2cc(-c3cc(F)c(F)c(F)c3)nc12` [Compound 196], the EC1.5 entry is “B (EC1.5 1-25 uM)” and the Emax was below 200%.

For the compound `O=C(Nc1nccs1)c1cccn2cc(-c3ccccc3C(F)(F)F)nc12` [Compound 148], the EC1.5 entry is “C (EC1.5>25 uM)” and the Emax is below 200%.

As for `O=C(Nc1ncc(CN2CCOCC2)s1)c1cccn2cc(-c3cccc(OC(F)(F)F)c3)nc12` [Compound 135], the EC1.5 entry is reported as “B (EC1.5 1-25 uM)” and the Emax was above 200%.

Regarding `O=C(Nc1ccccn1)c1cccn2cc(-c3ccc(C(F)(F)F)cc3)nc12` [Compound 151], the EC1.5 entry is “C (EC1.5>25 uM)” and the Emax was below 200%.

Take `O=C(Nc1cccc(CN2CCOCC2)n1)c1cccn2nc(-c3cccc(OC(F)(F)F)c3)nc12` [Compound 180]: the EC1.5 result is on record as “B (EC1.5 1-25 uM)” and the Emax is above 200%.

`O=C(Nc1cccc(CN2CCOCC2)n1)c1cccn2cc(-c3ccc(F)cc3F)nc12` [Compound 199]: the EC1.5 entry was “B (EC1.5 1-25 uM)” and the Emax is below 200%.

On to `O=C(Nc1nccs1)c1cccn2cc(-c3ccc(N4CCOCC4)cc3)nc12` [Compound 183], for which the EC1.5 result is recorded as “C (EC1.5>25 uM)” and the Emax was below 200%.

In the case of `O=C(Nc1ccccn1)c1cccn2cc(-c3ccc(F)cc3)nc12` [Compound 157], the EC1.5 entry is listed as “B (EC1.5 1-25 uM)” and the Emax was below 200%.

For `Cc1ncccc1-c1nc2c(C(=O)Nc3ccccn3)cccn2n1` [Compound 240], the EC1.5 result is listed as “C (EC1.5>25 uM)” and the Emax is below 200%.

With `Cc1nc(C)c(-c2nc3c(C(=O)Nc4nccs4)cccn3n2)s1` [Compound 229], the EC1.5 result is given as “C (EC1.5>25 uM)” and the maximal effect (Emax) was below 200%.

As for `O=C(Nc1nccs1)c1nccn2cc(-c3ccccc3OC(F)(F)F)nc12` [Compound 185], the EC1.5 result is “B (EC1.5 1-25 uM)” and the Emax was above 200%.

In the case of `O=C(Nc1cnccn1)c1nccn2cc(-c3ccccc3C(F)(F)F)nc12` [Compound 176], the EC1.5 result was “B (EC1.5 1-25 uM)” and the Emax was above 200%.

For `O=C(Nc1nccs1)c1nccn2cc(-c3ccc(N4CCCC4)cc3)nc12` [Compound 168], the EC1.5 entry is listed as “C (EC1.5>25 uM)” and the Emax was below 200%.

For the compound `Cc1csc(NC(=O)c2cccn3cc(-c4ccccc4)nc23)n1` [Compound 107], the EC1.5 entry was “B (EC1.5 1-25 uM)” and the Emax was above 200%.
